Measurements taken from US11299487B2, “Compounds and compositions as modulators of TLR signaling” (Neuropore Therapies, Inc., priority 2019, dated 2022).

Tests used:
human TLR2 [1] = target: T1, human TLR2 (Homo sapiens, UniProt O60603); assay: HEK-Blue hTLR2 antagonism assay (SEAP reporter) with agonist Pam2CSK4 (TLR2/6 agonist); format: cell-based; settings: Table A; HEK-Blue hTLR2 cells, ~3×EC50 Pam2CSK4, 18 h, SEAP OD 655 nm, 8-point dilutions
T1 construct: host or cells: HEK-Blue hTLR2 (HEK-293)
Method: (§1) Synthetic diacylated lipoprotein (Pam2CSK4, TLR2/6 agonist) and synthetic triacylated lipoprotein (Pam3CSK4, TLR1/2 agonist) were obtained from InvivoGen and were dissolved in endotoxin-free water to a concentration 1 mg/mL, vortexed until complete solubilization, and stored in aliquots at −20° C. Prior to addition to cells, an aliquot of the dissolved ligand was vortexed shortly and then was diluted in medium to 25 ng/mL Pam2CSK4 or 1000 ng/mL Pam3CSK4.
(§2) Test compounds were solubilized fresh to 10-20 mM stocks in DMSO and sonicated for 5-10 minutes in a water bath sonicator. Serial dilutions were prepared in DMSO, and then diluted in medium. The final concentration of DMSO used in the assay was 1%.
(§3) HEK-Blue hTLR2 reporter cells (InvivoGen) are HEK-293 cells stably expressing both the human TLR2 gene and a secreted embryonic alkaline phosphatase (SEAP) reporter construct downstream of NFκB promotor sites. HEK-Blue hTLR2 reporters were cultured according to manufacturer's protocol using Dulbecco's Modified Eagle Medium (DMEM; Gibco) containing 1× GlutaMax (Gibco), 10% heat-inactivated Fetal Bovine Serum (Gibco), Pen-Strep (50 U/mL penicillin, 50 μg/mL streptomycin, Gibco), 100 μg/mL Normocin (InvivoGen), and the selective antibiotic, 1×HEK-Blue Selection (InvivoGen). Quanti-Blue reagent (InvivoGen) for detection and quantification of secreted alkaline phosphatase was dissolved in 100 mL of endotoxin-free water, warmed to 37° C. for 30 minutes and then filtered using a 0.2 μm membrane.
(§4) On day 1, 50 μL of each test compound dilution in duplicates or a vehicle control was added to each well of a 96-well plate followed by addition of 150 μL of HEK-Blue hTLR2 cell suspension (1×10^5 cells/well) and incubated at 37° C./5% CO2 for 2 h. Next, 50 μL of an approximate 3×EC50 concentration of each agonist (Pam2CSK4 or Pam3CSK4) was added to the wells containing test compounds or the vehicle control. The plates were then incubated at 37° C./5% CO2 for 18 h. For each assay run, non-treated HEK-Blue hTLR2 cells were treated with serial dilutions of agonists to determine EC50 values for the respective run.
(§5) On day 2, secreted alkaline phosphatase (SEAP) activity was detected in cell culture supernatants. In brief, 20 μL was collected from each well and transferred to a 96-well plate. Next, 200 μL of Quanti-Blue detection reagent was added to each well. Plates were incubated at room temperature for 15 min. and SEAP activity was assessed by spectrophotometer OD reading at 655 nm. […] IC50 values were calculated based on 8-point dilutions for each compound.

human TLR2 [2] = target: T1, human TLR2; assay: HEK-Blue hTLR2 antagonism assay (SEAP reporter) with agonist Pam3CSK4 (TLR1/2 agonist); format: cell-based; settings: Table A; HEK-Blue hTLR2 cells, ~3×EC50 Pam3CSK4, 18 h, SEAP OD 655 nm, 8-point dilutions
Method: as §1, §2, §3, §4, §5

T1 sequence (O60603 21-784): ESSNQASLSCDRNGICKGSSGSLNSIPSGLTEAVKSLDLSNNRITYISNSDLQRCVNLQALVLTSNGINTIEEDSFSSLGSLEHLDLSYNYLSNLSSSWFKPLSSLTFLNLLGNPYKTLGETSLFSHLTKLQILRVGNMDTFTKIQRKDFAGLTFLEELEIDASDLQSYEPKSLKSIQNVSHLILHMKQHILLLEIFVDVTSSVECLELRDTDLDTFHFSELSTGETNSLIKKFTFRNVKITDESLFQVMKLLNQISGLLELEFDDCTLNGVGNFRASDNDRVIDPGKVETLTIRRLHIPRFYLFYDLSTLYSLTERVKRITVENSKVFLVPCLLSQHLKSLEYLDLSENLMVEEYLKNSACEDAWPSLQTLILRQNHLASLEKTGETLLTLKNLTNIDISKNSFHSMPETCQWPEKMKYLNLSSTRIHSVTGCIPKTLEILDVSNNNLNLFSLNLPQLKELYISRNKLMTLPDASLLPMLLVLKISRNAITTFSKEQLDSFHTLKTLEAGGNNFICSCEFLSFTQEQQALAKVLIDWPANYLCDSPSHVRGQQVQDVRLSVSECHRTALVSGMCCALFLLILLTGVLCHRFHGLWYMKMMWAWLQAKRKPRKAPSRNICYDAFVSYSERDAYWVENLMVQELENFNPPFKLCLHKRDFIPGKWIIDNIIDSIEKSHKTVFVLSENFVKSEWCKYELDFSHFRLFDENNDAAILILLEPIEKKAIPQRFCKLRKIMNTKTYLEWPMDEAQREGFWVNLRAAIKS

IC50 (human TLR2 [1]) [µM] | IC50 (human TLR2 [2]) [µM] | SMILES
2.1 | 2.2 | O=Cc1cc(-c2ccn(-c3cccc(N4CCCC4)c3)n2)cc(F)c1O [Compound A30, 3-fluoro-2-hydroxy-5-(1-(3-(pyrrolidin-1-yl)phenyl)-1H-pyrazol-3-yl)benzaldehyde]
3.4 | 6.2 | O=Cc1cc(-c2ccn(-c3cccc(N4CCCCC4)c3)n2)cc(F)c1O [Compound A31, 3-fluoro-2-hydroxy-5-(1-(3-(piperidin-1-yl)phenyl)-1H-pyrazol-3-yl)benzaldehyde]
12.7 | 17.4 | O=Cc1cc(-c2ccn(-c3cccc(N4CCOCC4)c3)n2)cc(F)c1O [Compound A32, 3-fluoro-2-hydroxy-5-(1-(3-morpholinophenyl)-1H-pyrazol-3-yl)benzaldehyde]
6.9 | 3.9 | Oc1c(F)cc(-c2cnn(-c3ccc(N4CCCC4)cc3)c2)cc1C1OCCCO1 [Compound A34, 2-(1,3-dioxan-2-yl)-6-fluoro-4-(1-(4-(pyrrolidin-1-yl)phenyl)-1H-pyrazol-4-yl)phenol]
1.6 | 0.7 | CN1CCN(/N=C/c2cc(-c3cnn(-c4ccc(N5CCCC5)cc4)c3)cc(F)c2O)CC1 [Compound A35, (E)-2-fluoro-6-(((4-methylpiperazin-1-yl)imino)methyl)-4-(1-(4-(pyrrolidin-1-yl)phenyl)-1H-pyrazol-4-yl)phenol]
> 100 | > 100 | Oc1c(F)cc(-c2cnn(-c3ccc(N4CCCC4)cc3)c2)cc1/C=N/N1CCN(C2CC2)CC1 [Compound A36, (E)-2-(((4-cyclopropylpiperazin-1-yl)imino)methyl)-6-fluoro-4-(1-(4-(pyrrolidin-1-yl)phenyl)-1H-pyrazol-4-yl)phenol]
> 100 | > 100 | Oc1c(F)cc(-c2cnn(-c3ccc(N4CCCC4)cc3)c2)cc1/C=N/N1CCOCC1 [Compound A37, (E)-2-fluoro-6-((morpholinoimino)methyl)-4-(1-(4-(pyrrolidin-1-yl)phenyl)-1H-pyrazol-4-yl)phenol]
0.4 | 0.4 | CC(=O)N/N=C/c1cc(-c2cnn(-c3ccc(N4CCCC4)cc3)c2)cc(F)c1O [Compound A38, N′-(3-fluoro-2-hydroxy-5-(1-(4-(pyrrolidin-1-yl)phenyl)-1H-pyrazol-4-yl)benzylidene)acetohydrazide]
0.5 | 0.5 | Oc1c(F)cc(-c2cnn(-c3ccc(N4CCCC4)cc3)c2)cc1/C=N/c1ccccc1 [Compound A39, (E)-2-fluoro-6-((phenylimino)methyl)-4-(1-(4-(pyrrolidin-1-yl)phenyl)-1H-pyrazol-4-yl)phenol]
7.2 | 2.7 | Oc1c(F)cc(-c2cnn(-c3ccc(N4CCCC4)cc3)c2)cc1/C=N/Oc1ccccc1 [Compound A40, (E)-3-fluoro-2-hydroxy-5-(1-(4-(pyrrolidin-1-yl)phenyl)-1H-pyrazol-4-yl)benzaldehyde O-phenyl Oxime]
1.3 | 1.3 | O=Cc1cc(-c2cn(-c3cccc(N4CCCC4)c3)nn2)cc(F)c1O [Compound A45, 3-fluoro-2-hydroxy-5-(1-(3-(pyrrolidin-1-yl)phenyl)-1H-1,2,3-triazol-4-yl)benzaldehyde]
4.1 | 0.9 | O=Cc1cc(-c2ccc(-c3ccc(N4CCCC4)cc3)s2)cc(F)c1O [Compound A50, 3-fluoro-2-hydroxy-5-(5-(4-(pyrrolidin-1-yl)phenyl)thiophen-2-yl)benzaldehyde]
> 100 | > 100 | O=Cc1cc(-c2ncc(-c3ccccc3)o2)cc(F)c1O [Compound A89, 3-fluoro-2-hydroxy-5-(5-phenyloxazol-2-yl)benzaldehyde]
6.5 | 4.5 | O=Cc1cc(-c2nc(-c3ccccc3)co2)cc(F)c1O [Compound A90, 3-fluoro-2-hydroxy-5-(4-phenyloxazol-2-yl)benzaldehyde]
3.5 | 0.9 | O=Cc1cc(-c2csc(-c3ccc(Cl)cc3)n2)cc(F)c1O [Compound A92, 5-(2-(4-chlorophenyl)thiazol-4-yl)-3-fluoro-2-hydroxybenzaldehyde]
0.9 | 0.3 | O=Cc1cc(-c2csc(-c3ccc(N4C[C@H]5CCC[C@H]5C4)cc3)n2)cc(F)c1O [Compound A97, 3-fluoro-5-(2-(4-((3aR,6aS)-hexahydrocyclopenta[c]pyrrol-2(1H)-yl)phenyl)thiazol-4-yl)-2-hydroxybenzaldehyde]

Second part, the compound before the results:

SMILES | IC50 (human TLR2 [1]) [µM] | IC50 (human TLR2 [2]) [µM]
COc1cc(-c2cnn(-c3cccc(Cl)c3)c2)cc(C=O)c1O [Compound A3, 5-(1-(3-chlorophenyl)-1H-pyrazol-4-yl)-2-hydroxy-3-methoxybenzaldehyde] | 9.9 | 8.3
COc1cc(-c2cnn(Cc3ccccc3)c2)cc(C=O)c1O [Compound A4, 5-(1-benzyl-1H-pyrazol-4-yl)-2-hydroxy-3-methoxybenzaldehyde] | 8.5 | 10.5
COc1cc(-c2cnn(C3CCOCC3)c2)cc(C=O)c1O [Compound A5, 2-hydroxy-3-methoxy-5-(1-(tetrahydro-2H-pyran-4-yl)-1H-pyrazol-4-yl)benzaldehyde] | > 100 | > 100
COc1cc(-c2cnn(-c3ccc(F)cc3)c2)cc(C=O)c1O [Compound A6, 5-(1-(4-fluorophenyl)-1H-pyrazol-4-yl)-2-hydroxy-3-methoxybenzaldehyde] | 14.1 | 12
COc1cc(-c2cnn(-c3cccc(C(F)(F)F)c3)c2)cc(C=O)c1O [Compound A9, 2-hydroxy-3-methoxy-5-(1-(3-(trifluoromethyl)phenyl)-1H-pyrazol-4-yl)benzaldehyde] | 3.8 | 5.1
COc1ccc(Cn2cc(-c3cc(C=O)c(O)c(OC)c3)cn2)cc1 [Compound A10, 2-hydroxy-3-methoxy-5-(1-(4-methoxybenzyl)-1H-pyrazol-4-yl)benzaldehyde] | 5.2 | 5.2
O=Cc1cc(-c2cnn(-c3ccccc3)c2)cc(F)c1O [Compound A11, 3-fluoro-2-hydroxy-5-(1-phenyl-1H-pyrazol-4-yl)benzaldehyde] | 2.3 | 2
Cc1cc(-c2cnn(-c3ccccc3)c2)cc(Cl)c1O [Compound A17, 2-chloro-6-methyl-4-(1-phenyl-1H-pyrazol-4-yl)phenol] | 52.6 | 43.4
Oc1c(F)cc(-c2cnn(-c3ccccc3)c2)cc1F [Compound A18, 2,6-difluoro-4-(1-phenyl-1H-pyrazol-4-yl)phenol] | > 100 | > 100
O=Cc1cc(-c2cnn(-c3ccc(N4CCCCC4)cc3)c2)cc(F)c1O [Compound A20, 3-fluoro-2-hydroxy-5-(1-(4-(piperidin-1-yl)phenyl)-1H-pyrazol-4-yl)benzaldehyde] | 0.5 | 0.2
O=Cc1cc(-c2cnn(-c3ccc(N4CCOCC4)cc3)c2)cc(F)c1O [Compound A21, 3-fluoro-2-hydroxy-5-(1-(4-morpholinophenyl)-1H-pyrazol-4-yl)benzaldehyde] | 2.6 | 1.1
O=Cc1cc(-c2cnn(-c3cccc(N4CCCCC4)c3)c2)cc(F)c1O [Compound A23, 3-fluoro-2-hydroxy-5-(1-(3-(piperidin-1-yl)phenyl)-1H-pyrazol-4-yl)benzaldehyde] | 0.8 | 0.9
O=Cc1cc(-c2cnn(-c3cccc(N4CCOCC4)c3)c2)cc(F)c1O [Compound A24, 3-fluoro-2-hydroxy-5-(1-(3-morpholinophenyl)-1H-pyrazol-4-yl)benzaldehyde] | 4.3 | 5.4
O=Cc1cc(-c2ccn(-c3ccc(N4CCCCC4)cc3)n2)cc(F)c1O [Compound A28, 3-fluoro-2-hydroxy-5-(1-(4-(piperidin-1-yl)phenyl)-1H-pyrazol-3-yl)benzaldehyde] | 0.9 | 0.8
O=Cc1cc(-c2ccn(-c3ccc(N4CCOCC4)cc3)n2)cc(F)c1O [Compound A29, 3-fluoro-2-hydroxy-5-(1-(4-morpholinophenyl)-1H-pyrazol-3-yl)benzaldehyde] | 6.4 | 7.6
